Results: US10865207B2, “Compounds for imaging Tau protein aggregates” (AC IMMUNE S.A., priority 2016, dated 2020)

Columns and labels:
Tau = Tau (Homo sapiens, UniProt P10636); assay: Competition binding to Tau in human AD brain homogenate with 18F-labeled Tau binder; design: High affinity to Tau (grade): key: −: poor; ∘: moderate; +: good; ++: very good; +++: excellent; details: for IC50: human AD brain homogenate, determined with non-radioactive fluorine-19 derivatives; for high Tau binding (grade): key: −: poor; ∘: moderate; +: good; ++: very good; +++: excellent
Protocol: (§1) 20 μg of human Alzheimer disease brain homogenate was incubated with a dilution series of each test compound (1000 to 0.06 nM) in the presence of 800 Bq of ^18F-labeled Tau binder. The samples were shaken at 110 rpm for 45 min at 37° C. Samples were then filtered through GF/B 96 well filter plates and washed twice with 300 μL assay buffer (PBS containing 0.1% BSA and 2% DMSO). Thereafter, filter plates were sealed and a Fuji Film Imaging Plate (BAS-SR2025) was placed on top. The imaging plate was analyzed after overnight exposition using a Fuji Film BAS-5000. Non-specific signal was determined with samples containing ^18F-labeled Tau-reference binder in the presence of assay buffer without brain substrate and competitor. […] The unblocked ^18F-labeled Tau-binder signal was defined as total binding. IC50 values were calculated by Prism V6 (GraphPad) setting total binding to 100%.

MAO B = biological target: T1, MAO B (Homo sapiens, UniProt P27338); assay: MAO B 18F-fluoro deprenyl competition assay in human HC brain homogenate; format: binding; design: Low affinity to MAO B (grade): key: −: poor; ∘: moderate; +: good; ++: very good; +++: excellent
T1 construct: 20 μg of human brain homogenate (without AD pathology); from tissue; host or cells: human brain homogenate without AD pathology
T1 sequence (P27338 1-520): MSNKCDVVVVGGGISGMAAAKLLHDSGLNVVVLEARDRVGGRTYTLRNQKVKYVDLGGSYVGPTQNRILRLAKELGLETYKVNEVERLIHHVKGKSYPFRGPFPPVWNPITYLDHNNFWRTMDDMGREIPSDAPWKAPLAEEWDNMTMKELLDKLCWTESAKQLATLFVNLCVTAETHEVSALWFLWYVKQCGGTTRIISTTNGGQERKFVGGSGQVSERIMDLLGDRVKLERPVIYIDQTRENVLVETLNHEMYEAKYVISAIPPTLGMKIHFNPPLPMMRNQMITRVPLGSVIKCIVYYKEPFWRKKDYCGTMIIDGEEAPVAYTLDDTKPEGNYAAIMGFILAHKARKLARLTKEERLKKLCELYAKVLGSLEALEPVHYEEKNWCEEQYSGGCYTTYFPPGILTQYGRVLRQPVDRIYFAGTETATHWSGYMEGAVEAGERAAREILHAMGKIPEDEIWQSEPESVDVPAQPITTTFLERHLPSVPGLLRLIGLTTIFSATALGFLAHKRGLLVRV
Protocol: The samples were shaken at 110 rpm for 45 min at 37° C. Samples were then filtered through GF/B 96 well filter plates and washed twice with 300 μL assay buffer (PBS containing 0.1% BSA and 2% DMSO). Thereafter, filter plates were sealed and a Fuji Film Imaging Plate (BAS-SR2025) was placed on top. The imaging plate was analyzed after overnight exposition using a Fuji Film BAS-5000. […] IC50 values were calculated by Prism V6 (GraphPad) setting total binding to 100%.

MAO A [1] = biological target: T2, MAO A (Homo sapiens, UniProt P21397); assay: MAO A FEH competition assay in human HC brain homogenate; format: binding; design: Low affinity to MAO A (grade), HC homogenate: key: −: poor; ∘: moderate; +: good; ++: very good; +++: excellent; details: for IC50: human control brain homogenate, FEH competition, fluorine-19 derivatives
T2 construct: 20 μg of human brain homogenate (without AD pathology); from tissue; host or cells: human brain homogenate without AD pathology
T2 sequence (P21397 1-527): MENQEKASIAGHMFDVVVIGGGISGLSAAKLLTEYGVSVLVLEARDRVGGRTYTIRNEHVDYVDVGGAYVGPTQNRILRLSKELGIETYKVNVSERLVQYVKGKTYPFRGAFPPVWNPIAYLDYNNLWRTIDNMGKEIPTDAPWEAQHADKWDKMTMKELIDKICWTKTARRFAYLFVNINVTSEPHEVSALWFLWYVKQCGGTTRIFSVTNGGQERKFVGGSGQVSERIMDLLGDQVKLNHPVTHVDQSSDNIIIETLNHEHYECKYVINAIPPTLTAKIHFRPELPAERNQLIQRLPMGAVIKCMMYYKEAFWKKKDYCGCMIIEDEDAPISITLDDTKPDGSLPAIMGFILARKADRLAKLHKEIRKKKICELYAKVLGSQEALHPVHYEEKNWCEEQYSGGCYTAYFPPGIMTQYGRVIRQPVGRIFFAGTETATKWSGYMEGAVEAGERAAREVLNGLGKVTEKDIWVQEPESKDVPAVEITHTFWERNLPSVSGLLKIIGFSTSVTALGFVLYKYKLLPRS
Protocol: as §1, with “human” for “human Alzheimer disease”, “homogenate (without AD pathology)” for “homogenate”, “MAO-A binder ([^18F]fluoroethyl harmine, FEH).” for “Tau binder.”, “FEH” for “Tau-reference binder”, “FEH” for “Tau-binder”

MAO A [2] = biological target: T3, MAO A (Mus musculus, UniProt Q64133); assay: MAO A 18F-FEH competition assay in mouse brain homogenate; format: binding; design: Low affinity to MAO A (grade), mouse brain homogenate: key to the marks not given beside the values; details: for IC50: 18F-FEH competition, fluorine-19 derivatives
T3 construct: from tissue; host or cells: whole mouse brain homogenate
T3 sequence (Q64133 1-526): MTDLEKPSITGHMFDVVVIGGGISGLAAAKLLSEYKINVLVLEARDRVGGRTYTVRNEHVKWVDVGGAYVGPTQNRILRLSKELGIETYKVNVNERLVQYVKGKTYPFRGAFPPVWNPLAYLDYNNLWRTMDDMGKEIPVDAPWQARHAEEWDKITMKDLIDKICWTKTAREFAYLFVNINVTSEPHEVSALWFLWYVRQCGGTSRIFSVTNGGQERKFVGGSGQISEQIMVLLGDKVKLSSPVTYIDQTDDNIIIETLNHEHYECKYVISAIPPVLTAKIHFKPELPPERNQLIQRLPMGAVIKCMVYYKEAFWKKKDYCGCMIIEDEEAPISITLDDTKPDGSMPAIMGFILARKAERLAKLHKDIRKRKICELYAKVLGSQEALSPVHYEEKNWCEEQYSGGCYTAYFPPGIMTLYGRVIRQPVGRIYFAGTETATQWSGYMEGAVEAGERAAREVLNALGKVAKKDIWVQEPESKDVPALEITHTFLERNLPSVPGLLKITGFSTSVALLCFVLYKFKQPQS

Sequence of Tau (P10636 623-708 limits assumed): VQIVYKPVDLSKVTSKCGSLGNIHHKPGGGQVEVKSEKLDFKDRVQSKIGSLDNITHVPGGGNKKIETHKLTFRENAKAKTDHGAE

high Tau binding (grade) (Tau; Table 2, fluorine-19 derivatives)	IC50 (Tau)	IC50 (MAO B)	IC50 (MAO A [1])	IC50 (MAO A [2])	low MAO A binding (grade) (MAO A [2]; Table 2, IC50 in mouse brain homogenate)	High affinity to Tau (grade) (Tau; Table 1, IC50 in AD brain homogenate, fluorine-19 derivatives)	fold higher MAO B IC50 than compound 18F-1 (MAO B; HC brain homogenate)	Low affinity to MAO B (grade) (MAO B; Table 1)	fold higher MAO A IC50 than compound 18F-1 (MAO A [1]; HC brain homogenate)	fold higher MAO A IC50 than compound 18F-2 (MAO A [1]; HC brain homogenate)	Low affinity to MAO A (grade), HC homogenate (MAO A [1]; Table 1)	Low affinity to MAO A (grade), mouse brain homogenate (MAO A [2]; Table 1)	fold higher MAO A IC50 than compound 18F-1 (MAO A [2]; whole mouse brain homogenate)	fold higher MAO A IC50 than compound 18F-2 (MAO A [2]; whole mouse brain homogenate)	Structure (SMILES)
+++	< 2 nM	> 1000 nM	530 nM	> 1000 nM	+++	–	–	–	–	–	–	–	–	–	Fc1ncccc1-c1ccc2c(n1)[nH]c1ccncc12 [Compound F-4]
–	< 2 nM	> 1000 nM	530 nM	1300 nM	–	+++	> 5 fold	+++	106 fold	5 fold	++	+++	59 fold	2.7 fold	[18F]c1ncccc1-c1ccc2c(n1)[nH]c1ccncc12 [Compound ^18F-4]
